Assay results from patent US20050101595A1, “N-containing cycloalkyl-substituted amino-thiazole derivatives and pharmaceutical compositions for inhibiting cell proliferation and methods for their use” (PFIZER INC., priority 2003, published 2005).
Where a name gives a salt, the structure may show the parent alone. Read-outs that look alike come from different tables or passages of the source. One block for each molecule: values may come before it.

Assays:
[1] = biological target: CDK2/Cyclin A (Homo sapiens, UniProt P24941); test: Inhibition of CDK2/Cyclin A Retinoblastoma Kinase Activity; format: biochemical; details: for Ki: apparent Ki, CDK2/proteolyzed cyclin A, Rb fragment substrate, 25 μM ATP; for CDK2 % Inhibition At 0.03 μM: Table 2
In short: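 Percent inhibition is calculated against DMSO-only wells after subtracting no-enzyme background. The enzyme is human CDK2 complexed with proteolyzed cyclin A, used at 10 nM or 19 nM on an Rb fragment with 25 μM [32/33P]ATP, at pH 7.4 and 30° C.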

[2] = biological target: human CDK4 and genetically truncated (1-264) cyclin D3 (Homo sapiens, UniProt P11802); test: Inhibition of CDK4/Cyclin D Retinoblastoma Kinase Activity; format: biochemical; details: for Ki: apparent Ki, CDK4/truncated cyclin D3, Rb fragment substrate, 25 μM ATP
In short: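 Apparent Ki values derive from fitting activity at varied inhibitor concentrations to a competitive (or competitive tight-binding) model. Kinase reactions used 5 nM CDK4/cyclin D3(1-264), Rb fragment substrate and 25 μM ATP. Incubation ran 20 min at 30 °C, extended to 60 min under linear conditions for tight binders.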

[3] = tested on: HCT-116 cell line; test: Inhibition of cell growth, tetrazolium salt (MTT) assay; format: cell-based; details: for HCT-116 % Inhibition at 0.25 μM: 0.25 μM compound; for IC50: Homo sapiens, HCT-116, 120 h, MTT, three to five days, read-out: HCT-116 IC50
In short: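 MTT colorimetric viability: three-to-five-day compound exposure in 0.5% (v/v) DMSO at 37° C, MTT 0.2 mg/mL for the last 4 h, A540 compared with vehicle-treated cells.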

[4] = 0.1 μM compound, HCT-116, Table 3

Chain of human CDK4 and genetically truncated (1-264) cyclin D3 (P11802 whole entry, the tested form may be a part): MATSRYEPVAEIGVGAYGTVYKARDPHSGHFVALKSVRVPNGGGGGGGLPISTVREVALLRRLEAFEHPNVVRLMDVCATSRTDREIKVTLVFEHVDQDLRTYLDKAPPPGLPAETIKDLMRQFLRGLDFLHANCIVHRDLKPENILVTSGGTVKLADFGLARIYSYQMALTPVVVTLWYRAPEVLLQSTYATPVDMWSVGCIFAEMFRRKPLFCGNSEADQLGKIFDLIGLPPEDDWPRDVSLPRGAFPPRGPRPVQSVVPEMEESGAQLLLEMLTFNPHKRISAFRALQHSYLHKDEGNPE
Chain of human CDK4 and genetically truncated (1-264) cyclin D3 (P30281 1-264 partner): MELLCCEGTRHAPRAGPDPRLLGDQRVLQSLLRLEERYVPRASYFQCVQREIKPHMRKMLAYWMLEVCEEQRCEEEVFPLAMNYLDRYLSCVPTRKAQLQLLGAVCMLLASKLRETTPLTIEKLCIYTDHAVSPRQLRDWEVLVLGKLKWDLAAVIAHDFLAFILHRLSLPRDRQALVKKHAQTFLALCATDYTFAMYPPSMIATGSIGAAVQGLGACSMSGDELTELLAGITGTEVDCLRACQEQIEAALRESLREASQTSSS

CDK2 % Inhibition at 0.03 μM ([1]; 0.03 μM compound, Table 3): 70% | CDK4 % Inhibition at 0.03 μM ([2]; 0.03 μM compound, Table 3): 57%
Compound: Nc1nc(NC2CCN(S(=O)(=O)c3ccc(S(=O)(=O)c4ccc(C(F)(F)F)cn4)s3)CC2)sc1C(=O)c1c(F)cccc1F [Example P43]
HCT-116 % Inhibition at 0.1 μM [3, 4]: 0% | HCT-116 % Inhibition at 0.25 μM ([3]; HCT-116, Table 3): 17%

CDK2 % Inhibition at 0.03 μM ([1]; at 0.03 μM): 19% | CDK4 % Inhibition at 0.03 μM ([2]; at 0.03 μM): 49%
Compound: CCCCCOc1ccc(C(=O)N2CCC(Nc3nc(N)c(C(=O)c4c(F)cccc4F)s3)CC2)cc1 [Example R14]
HCT-116 % Inhibition at 0.1 μM ([3]; HCT-116 cells, at 0.1 μM): 0% | HCT-116 5 Inhibition at 0.25 μM ([3]; HCT-116 cells): 46

CDK2 % Inhibition at 0.03 μM ([1]; 0.03 μM compound, Table 3): −25% | CDK4 % Inhibition at 0.03 μM ([2]; 0.03 μM compound, Table 3): −5%
Compound: Nc1nc(NC2CCN(S(=O)(=O)c3ccc(Sc4ccncc4)cc3)CC2)sc1C(=O)c1c(F)cccc1F [Example P87]
HCT-116 % Inhibition at 0.1 μM [3, 4]: 9% | HCT-116 % Inhibition at 0.25 μM ([3]; HCT-116, Table 3): 22%

Ki [1]: < 1 nM | Ki [2]: 1.7 nM | IC50 ([3]; first HCT-116 column (c4)): > 5000 nM | IC50 ([3]; second HCT-116 column (c5)): > 5000 nM
Compound: Nc1nc(NC2CCN(S(=O)(=O)c3ccc(-c4nnn[nH]4)cc3)CC2)sc1C(=O)c1c(F)cccc1F [Example J4, 1-(4-Amino-2-{1-[4-(1H-tetrazol-5-yl)-benzenesulfonyl]-piperidin-4ylamino}-thiazol-5-yl)-1-(2,6-difluoro-phenyl)-methanone Trifluoroacetic Acid Salt]

Ki [1]: 1.5 nM | Ki [2]: 0.28 nM | IC50 ([3]; first HCT-116 column (c4)): 110 nM | IC50 ([3]; second HCT-116 column (c5)): 1500 nM
Compound: Nc1nc(NC2CCN(S(=O)(=O)c3ccc(OCCNC4CC4)nc3)CC2)sc1C(=O)c1c(F)cccc1F [Example H21, (4-Amino-2-{1-[6-(2-cyclopropylamino-ethoxy)-3-sulfonyl]-piperidin-4-ylamino}-thiazol-5-yl)-(2,6-difluoro-phenyl)-methanone Hydrochloride Salt]

CDK2 % Inhibition at 0.03 μM ([1]; 0.03 μM compound, Table 3): 23% | CDK4 % Inhibition at 0.03 μM ([2]; 0.03 μM compound, Table 3): 6%
Compound: Nc1nc(NC2CCN(S(=O)(=O)c3c(Cl)cc(Cl)cc3Cl)CC2)sc1C(=O)c1c(F)cccc1F [Example P57]
HCT-116 % Inhibition at 0.1 μM [3, 4]: 9% | HCT-116 % Inhibition at 0.25 μM ([3]; HCT-116, Table 3): 31%

CDK2 % Inhibition At 0.03 μM ([1]; 0.03 μM compound): 24% | CDK4 % Inhibition at 0.03 μM ([2]; 0.03 μM compound, Table 2): 12%
Compound: COC(=O)c1cccc(NC(=O)N2CCC(Nc3nc(N)c(C(=O)c4c(F)cccc4F)s3)CC2)c1 [Example O60]
HCT-116 % Inhibition at 0.25 μM ([3]; HCT-116, Table 2): 39%

Ki [1]: 0.84 nM | Ki [2]: 1.2 nM | IC50 ([3]; first HCT-116 column (c4)): 80 nM | IC50 ([3]; second HCT-116 column (c5)): 230 nM
Compound: COc1ccc(S(=O)(=O)N2CCC(Nc3nc(N)c(C(=O)c4c(F)cccc4F)s3)CC2)cn1 [Example F22, 1-{4-Amino-2-[1-(6-methoxy-pyridine-3-sulfonyl)-piperidin4-ylamino]-thiazol-5-yl}-1-(2,6-difluoro-phenyl)-methanone]

CDK2 % Inhibition at 0.03 μM ([1]; at 0.03 μM): 17% | CDK4 % Inhibition at 0.03 μM ([2]; at 0.03 μM): 41%
Compound: Nc1nc(NC2CCN(C(=O)c3ccc(C(F)(F)F)cc3)CC2)sc1C(=O)c1c(F)cccc1F [Example R152]
HCT-116 % Inhibition at 0.1 μM ([3]; HCT-116 cells, at 0.1 μM): 0% | HCT-116 5 Inhibition at 0.25 μM ([3]; HCT-116 cells): 40

Ki [1]: 4.1 nM | Ki [2]: 2.8 nM | IC50 ([3]; first HCT-116 column (c4)): 260 nM | IC50 ([3]; second HCT-116 column (c5)): 590 nM
Compound: Nc1nc(NC2CCN(S(=O)(=O)Cc3ccccc3)CC2)sc1C(=O)c1c(F)cccc1F [Example F4, 1-[4-Amino-2-(1-phenylmethanesulfonyl-piperidin-4-ylamino)-thiazol-5-yl]-1-(2,6-difluoro-phenyl)-methanone]

CDK2 % Inhibition at 0.03 μM ([1]; 0.03 μM compound, Table 4): 59% | CDK4 % Inhibition at 0.03 μM ([2]; 0.03 μM compound, Table 4): 80%
Compound: CC(=O)Oc1ccccc1C(=O)N1CCC(Nc2nc(N)c(C(=O)c3c(F)cccc3F)s2)CC1 [Example Q14]
HCT-116 % Inhibition at 0.1 μM ([3]; 0.1 μM compound, HCT-116, Table 4): 15% | HCT-116 % Inhibition at 0.25 μM ([3]; HCT-116, Table 4): 45%

Ki [1]: 1.2 nM | Ki [2]: 0.49 nM | IC50 ([3]; first HCT-116 column (c4)): 230 nM | IC50 ([3]; second HCT-116 column (c5)): > 500 nM
Compound: Nc1nc(NC2CCN(S(=O)(=O)c3ccc(CCN4CCCC4)nc3)CC2)sc1C(=O)c1c(F)cccc1F [Example N2, (4-Amino-2-{1-[6-(2-pyrrolidin-1-yl-ethyl)-pyridine-3-sulfonyl]-piperidin-4-ylamino}-thiazol-5-yl)-(2,6-difluoro-phenyl)-methanone Hydrochloride Salt.]

Ki [1]: 65 nM | Ki [2]: 9.6 nM | IC50 ([3]; first HCT-116 column (c4)): 770 nM | IC50 ([3]; second HCT-116 column (c5)): 1900 nM
Compound: COc1ccc(C(=O)N2CCC(Nc3nc(N)c(C(=O)c4c(F)cccc4F)s3)CC2)cc1 [Example C2, {4-Amino-2-[1-(4-methoxy-benzoyl)-piperidin-4-ylamino]-thiazol-5-yl}-(2,6-difluoro-phenyl)-methanone]

CDK2 % Inhibition At 0.03 μM ([1]; 0.03 μM compound): 25% | CDK4 % Inhibition at 0.03 μM ([2]; 0.03 μM compound, Table 2): 16%
Compound: Nc1nc(NC2CCN(C(=O)NCCc3ccc4c(c3)OCO4)CC2)sc1C(=O)c1c(F)cccc1F [Example O87]
HCT-116 % Inhibition at 0.25 μM ([3]; HCT-116, Table 2): 44%
